Measurements from US20050282743A1, “Molecular interactions in cells” (Arbor Vita Corporation, priority 2001, published 2005).
Ends that are not written are not given here. Peptide text beside a SMILES is read from it. * marks the point of attachment. Biotin = O=C1N[C@H]2[C@H](CS[C@H]2CCCCC(=O)*)N1

Experiments:
Assay in all cases: G' assay (10 uM PL peptide), results of TABLE 7 and TABLE 12
Format in all cases: binding
[1] = molecular target: T1, PDZ protein (GST-PDZ fusion) (Homo sapiens, UniProt P29475); conditions: PDZ NOS1, PDZ Domain 1
T1 construct: made in house; host or cells: E. coli (DH5alpha, BL21 or JM109)
Summary of the method: (§1)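 Same steps as the G-zero format, apart from a peptide concentration of 10 uM in place of 20 uM in step 2. Amino-terminally biotinylated PL peptides bind GST-PDZ fusions, and retained peptide is quantified by 450 nm absorbance.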

[2] = molecular target: T2, PDZ protein (GST-PDZ fusion) (Homo sapiens, UniProt Q96JY6); conditions: PDZ LIM-Mystique, PDZ Domain 1
T2 construct: made in house; host or cells: E. coli (DH5alpha, BL21 or JM109)
T2 sequence (Q96JY6 1-352): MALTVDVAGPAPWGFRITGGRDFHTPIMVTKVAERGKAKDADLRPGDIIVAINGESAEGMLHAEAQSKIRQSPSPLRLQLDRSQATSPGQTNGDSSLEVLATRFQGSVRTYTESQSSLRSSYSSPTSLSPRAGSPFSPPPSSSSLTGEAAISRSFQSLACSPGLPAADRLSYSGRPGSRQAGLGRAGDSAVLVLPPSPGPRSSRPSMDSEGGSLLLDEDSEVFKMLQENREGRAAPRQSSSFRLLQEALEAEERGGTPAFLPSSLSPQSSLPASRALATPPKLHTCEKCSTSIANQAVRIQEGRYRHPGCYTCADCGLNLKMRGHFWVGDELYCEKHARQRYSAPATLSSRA
Summary of the method: as §1

[3] = molecular target: T3, PDZ protein (GST-PDZ fusion) (Homo sapiens, UniProt Q5T2W1)
T3 construct: made in house; host or cells: E. coli (DH5alpha, BL21 or JM109)
T3 sequence (Q5T2W1 1-519): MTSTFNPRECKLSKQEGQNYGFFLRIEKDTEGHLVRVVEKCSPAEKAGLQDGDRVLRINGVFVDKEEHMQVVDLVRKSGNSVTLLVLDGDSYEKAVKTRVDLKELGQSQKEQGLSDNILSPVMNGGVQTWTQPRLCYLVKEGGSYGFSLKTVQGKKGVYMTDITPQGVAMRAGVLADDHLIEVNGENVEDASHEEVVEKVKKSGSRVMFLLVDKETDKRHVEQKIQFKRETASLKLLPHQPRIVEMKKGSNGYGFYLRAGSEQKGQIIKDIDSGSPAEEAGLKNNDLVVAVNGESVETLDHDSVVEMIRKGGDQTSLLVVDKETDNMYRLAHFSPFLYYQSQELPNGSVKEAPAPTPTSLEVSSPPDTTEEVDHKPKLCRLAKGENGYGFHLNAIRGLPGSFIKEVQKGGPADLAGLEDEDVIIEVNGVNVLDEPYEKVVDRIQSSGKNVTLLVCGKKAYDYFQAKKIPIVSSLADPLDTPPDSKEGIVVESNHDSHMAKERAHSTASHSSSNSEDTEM
Summary of the method: as §1

[4] = molecular target: T4, PDZ protein (GST-PDZ fusion) (Homo sapiens, UniProt Q9Y2H9); conditions: PDZ KIAA0973, PDZ Domain 1
T4 construct: made in house; host or cells: E. coli (DH5alpha, BL21 or JM109)
Summary of the method: as §1

[5] = molecular target: T5, PDZ protein (GST-PDZ fusion) (Homo sapiens, UniProt O14745)
T5 construct: made in house; host or cells: E. coli (DH5alpha, BL21 or JM109)
T5 sequence (O14745 1-358): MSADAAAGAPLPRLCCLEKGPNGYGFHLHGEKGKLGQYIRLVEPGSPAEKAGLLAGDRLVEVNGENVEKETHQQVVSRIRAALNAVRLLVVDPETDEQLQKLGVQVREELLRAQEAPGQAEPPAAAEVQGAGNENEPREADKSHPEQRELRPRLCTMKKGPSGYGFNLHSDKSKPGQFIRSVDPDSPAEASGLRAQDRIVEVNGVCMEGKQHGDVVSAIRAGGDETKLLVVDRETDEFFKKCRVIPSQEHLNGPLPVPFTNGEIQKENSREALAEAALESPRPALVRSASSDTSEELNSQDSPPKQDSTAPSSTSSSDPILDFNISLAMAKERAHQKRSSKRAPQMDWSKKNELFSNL
Summary of the method: as §1

T1 sequence (P29475 whole entry, the tested form may be a part): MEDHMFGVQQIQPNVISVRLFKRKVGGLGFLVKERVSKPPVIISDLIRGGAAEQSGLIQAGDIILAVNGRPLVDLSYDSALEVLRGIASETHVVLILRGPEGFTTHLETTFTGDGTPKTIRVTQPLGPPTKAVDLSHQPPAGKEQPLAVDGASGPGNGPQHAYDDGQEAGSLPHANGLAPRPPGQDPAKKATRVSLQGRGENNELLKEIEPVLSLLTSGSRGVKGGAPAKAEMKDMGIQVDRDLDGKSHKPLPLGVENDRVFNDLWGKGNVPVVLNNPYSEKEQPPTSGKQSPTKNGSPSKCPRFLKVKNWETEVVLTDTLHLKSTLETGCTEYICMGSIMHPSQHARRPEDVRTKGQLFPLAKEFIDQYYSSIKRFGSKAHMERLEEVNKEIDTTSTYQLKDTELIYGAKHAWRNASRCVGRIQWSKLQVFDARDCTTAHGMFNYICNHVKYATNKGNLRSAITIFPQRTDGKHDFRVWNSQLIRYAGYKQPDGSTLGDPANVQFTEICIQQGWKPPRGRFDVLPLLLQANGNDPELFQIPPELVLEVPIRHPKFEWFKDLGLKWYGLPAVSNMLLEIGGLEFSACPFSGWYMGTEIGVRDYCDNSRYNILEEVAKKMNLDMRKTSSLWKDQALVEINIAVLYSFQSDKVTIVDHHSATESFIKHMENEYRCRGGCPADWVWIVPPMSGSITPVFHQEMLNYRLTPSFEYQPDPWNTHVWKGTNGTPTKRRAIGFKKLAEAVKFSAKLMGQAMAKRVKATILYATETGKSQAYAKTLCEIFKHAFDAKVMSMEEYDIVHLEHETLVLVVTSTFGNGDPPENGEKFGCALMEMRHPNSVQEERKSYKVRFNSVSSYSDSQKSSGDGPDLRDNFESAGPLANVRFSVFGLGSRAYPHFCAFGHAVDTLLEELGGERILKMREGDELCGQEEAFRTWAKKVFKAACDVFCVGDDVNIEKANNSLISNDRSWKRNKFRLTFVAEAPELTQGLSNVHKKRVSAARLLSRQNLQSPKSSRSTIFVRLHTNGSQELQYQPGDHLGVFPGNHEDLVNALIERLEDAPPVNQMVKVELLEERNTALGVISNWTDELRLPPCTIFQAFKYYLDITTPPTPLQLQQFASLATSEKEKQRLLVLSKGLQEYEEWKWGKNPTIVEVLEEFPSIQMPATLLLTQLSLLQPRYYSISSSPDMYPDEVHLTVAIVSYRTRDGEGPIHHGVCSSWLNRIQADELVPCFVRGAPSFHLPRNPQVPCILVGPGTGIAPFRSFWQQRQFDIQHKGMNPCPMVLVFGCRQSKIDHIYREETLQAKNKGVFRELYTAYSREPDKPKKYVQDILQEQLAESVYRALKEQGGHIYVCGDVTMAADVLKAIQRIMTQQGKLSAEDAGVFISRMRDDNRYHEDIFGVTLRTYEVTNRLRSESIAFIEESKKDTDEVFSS
T4 sequence (Q9Y2H9 whole entry, the tested form may be a part): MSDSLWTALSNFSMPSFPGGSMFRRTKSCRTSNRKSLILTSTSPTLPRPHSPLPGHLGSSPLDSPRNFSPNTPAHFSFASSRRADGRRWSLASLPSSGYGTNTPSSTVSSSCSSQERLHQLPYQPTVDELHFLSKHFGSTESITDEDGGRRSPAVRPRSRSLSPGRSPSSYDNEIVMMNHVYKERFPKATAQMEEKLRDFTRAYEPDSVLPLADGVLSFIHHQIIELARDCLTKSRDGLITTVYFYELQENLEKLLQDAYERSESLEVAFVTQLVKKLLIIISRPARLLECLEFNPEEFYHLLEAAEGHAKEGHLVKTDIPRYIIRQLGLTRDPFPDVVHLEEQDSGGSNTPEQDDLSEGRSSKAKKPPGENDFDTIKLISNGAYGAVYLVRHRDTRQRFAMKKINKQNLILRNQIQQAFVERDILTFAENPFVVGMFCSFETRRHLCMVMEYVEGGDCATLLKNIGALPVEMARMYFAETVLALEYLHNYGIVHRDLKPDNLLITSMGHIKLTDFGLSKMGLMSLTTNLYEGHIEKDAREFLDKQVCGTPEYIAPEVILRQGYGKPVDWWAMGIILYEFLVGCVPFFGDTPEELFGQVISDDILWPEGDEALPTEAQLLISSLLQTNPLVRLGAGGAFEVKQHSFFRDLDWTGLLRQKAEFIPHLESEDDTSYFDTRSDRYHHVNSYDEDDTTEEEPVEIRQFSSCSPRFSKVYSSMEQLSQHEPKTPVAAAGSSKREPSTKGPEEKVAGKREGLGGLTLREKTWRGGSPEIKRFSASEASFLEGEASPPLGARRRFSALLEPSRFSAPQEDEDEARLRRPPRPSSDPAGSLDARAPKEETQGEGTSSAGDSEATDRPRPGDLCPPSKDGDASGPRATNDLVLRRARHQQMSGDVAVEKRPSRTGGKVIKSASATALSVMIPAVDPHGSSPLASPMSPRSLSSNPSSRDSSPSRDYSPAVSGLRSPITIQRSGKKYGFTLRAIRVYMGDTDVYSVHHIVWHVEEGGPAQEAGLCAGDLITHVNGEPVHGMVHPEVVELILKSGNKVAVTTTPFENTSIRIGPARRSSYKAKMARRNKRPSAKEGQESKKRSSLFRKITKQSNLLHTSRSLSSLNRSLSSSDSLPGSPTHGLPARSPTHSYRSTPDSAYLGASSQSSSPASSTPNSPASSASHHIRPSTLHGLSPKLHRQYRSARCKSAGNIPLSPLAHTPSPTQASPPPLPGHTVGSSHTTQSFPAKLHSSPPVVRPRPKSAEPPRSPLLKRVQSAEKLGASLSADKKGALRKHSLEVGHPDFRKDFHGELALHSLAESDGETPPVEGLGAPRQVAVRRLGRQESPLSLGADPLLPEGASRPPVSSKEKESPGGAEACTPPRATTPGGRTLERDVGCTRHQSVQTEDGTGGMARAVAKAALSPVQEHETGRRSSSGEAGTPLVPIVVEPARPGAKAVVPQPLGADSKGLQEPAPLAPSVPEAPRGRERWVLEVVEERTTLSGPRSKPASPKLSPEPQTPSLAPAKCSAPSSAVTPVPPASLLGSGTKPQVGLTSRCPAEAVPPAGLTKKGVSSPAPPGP

Row | Compound | Classification [1] | Classification [2] | Classification ([3]; PDZ PDZK-1, PDZ Domain 4) | Classification [4] | Classification ([5]; PDZ EBP50, PDZ Domain 1) | Classification ([5]; PDZ EBP50, PDZ Domain 2) | Classification ([3]; PDZ PDZK1, PDZ Domain 2, 3, 4)
1 | ELLQFCRTPNPALKNGQYWV (Biotin-ELLQFCRTPNPALKNGQYWV) | 2 (A450 nm 1-2) | 2 (A450 nm 1-2) | – | – | – | – | –
2 | CC[C@H](C)[C@H](NC(=O)[C@H](Cc1ccc(O)cc1)NC(=O)[C@@H](NC(=O)[C@@H]1CCCN1C(=O)[C@H](CCC(N)=O)NC(=O)[C@H](CCC(=O)O)NC(=O)[C@H](CCC(N)=O)NC(=O)[C@H](C)NC(=O)[C@@H](NC(=O)[C@H](CC(C)C)NC(=O)[C@H](CC(C)C)NC(=O)[C@H](CCCNC(=N)N)NC(=O)[C@H](Cc1ccc(O)cc1)NC(=O)[C@H](CCSC)NC(=O)[C@H](C)NC(=O)[C@H](C)NC(=O)[C@@H]1CCCN1C(=O)[C@H](CCSC)NC(=O)[C@@H](NC(=O)[C@H](CCCCN)NC(=O)CCCC[C@@H]1SC[C@@H]2NC(=O)N[C@@H]21)[C@@H](C)O)[C@@H](C)O)C(C)C)C(=O)O [MINT-1] (Biotin-KTMPAAMYRLLTAQEQPVYI-OH; C-terminus assumed) | 4 (A450 nm 3-4) | – | 1 (A450 nm 0-1) | – | – | – | –
3 | TQGFPGPATWRRISSLESEV | 1 (A450 nm 0-1) | 4 (A450 nm 3-4) | – | 1 (A450 nm 0-1) | – | – | –
4 | CSCC[C@H](NC(=O)[C@H](C)NC(=O)[C@H](CCCNC(=N)N)NC(=O)CNC(=O)[C@@H](NC(=O)[C@H](Cc1c[nH]c2ccccc12)NC(=O)[C@H](CCCNC(=N)N)NC(=O)CNC(=O)CCCC[C@@H]1SC[C@@H]2NC(=O)N[C@@H]21)[C@@H](C)O)C(=O)N[C@@H](CO)C(=O)N[C@@H](C)C(=O)N[C@@H](Cc1c[nH]c2ccccc12)C(=O)N[C@@H](CCCCN)C(=O)N1CCC[C@H]1C(=O)N[C@H](C(=O)N[C@@H](CCCNC(=N)N)C(=O)N[C@@H](CCCNC(=N)N)C(=O)N[C@@H](CCC(=O)O)C(=O)N[C@H](C(=O)N[C@@H](CCC(=O)O)C(=O)N[C@H](C(=O)O)C(C)C)[C@@H](C)O)[C@@H](C)O [HPV E6 #35 (modified)] (Biotin-GRWTGRAMSAWKPTRRETEV-OH; C-terminus assumed) | 1 (A450 nm 0-1) | 1 (A450 nm 0-1) | – | 2 (A450 nm 1-2) | – | – | –
5 | CC(C)C[C@H](NC(=O)[C@H](C)NC(=O)[C@@H](NC(=O)[C@@H](NC(=O)[C@H](Cc1c[nH]cn1)NC(=O)[C@H](CC(C)C)NC(=O)CNC(=O)[C@H](CCC(N)=O)NC(=O)CNC(=O)CNC(=O)[C@H](C)NC(=O)[C@H](C)NC(=O)[C@H](CCCNC(=N)N)NC(=O)[C@H](C)NC(=O)[C@H](CO)NC(=O)[C@H](CC(=O)O)NC(=O)[C@H](CC(=O)O)NC(=O)[C@H](Cc1c[nH]c2ccccc12)NC(=O)[C@H](C)NC(=O)CCCC[C@@H]1SC[C@@H]2NC(=O)N[C@@H]21)C(C)C)[C@@H](C)O)C(=O)O [LPAP] (Biotin-AWDDSARAAGGQGLHVTAL-OH; C-terminus assumed) | 1 (A450 nm 0-1) | – | – | – | 5 (A450 nm of 4 more than 2× repeated) | 4 (A450 nm 3-4) | 3 (A450 nm 2-3)
